Test results as given in PubChem BioAssay AID463203 (Broad Institute, 2010).
Activity calls are given as the source filed them.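 How the source made its calls: active means more than half of replicate measurements showing over 20% loss of kinase signal relative to plate controls; inconclusive means some but at most half of replicates over 20% loss; inactive means no replicate over 20% signal loss.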

target: Glycogen synthase kinase-3 alpha (Homo sapiens) (UniProt P49840); assay: concentration-response blocking of human GSK3A – biochemical, luminescence, cell-free homogeneous, retest, dose response (AID 463203); details: GSK-3 alpha enzyme, ADP-Glo luminescence, 60 min
Sequence (P49840 whole entry, looked up): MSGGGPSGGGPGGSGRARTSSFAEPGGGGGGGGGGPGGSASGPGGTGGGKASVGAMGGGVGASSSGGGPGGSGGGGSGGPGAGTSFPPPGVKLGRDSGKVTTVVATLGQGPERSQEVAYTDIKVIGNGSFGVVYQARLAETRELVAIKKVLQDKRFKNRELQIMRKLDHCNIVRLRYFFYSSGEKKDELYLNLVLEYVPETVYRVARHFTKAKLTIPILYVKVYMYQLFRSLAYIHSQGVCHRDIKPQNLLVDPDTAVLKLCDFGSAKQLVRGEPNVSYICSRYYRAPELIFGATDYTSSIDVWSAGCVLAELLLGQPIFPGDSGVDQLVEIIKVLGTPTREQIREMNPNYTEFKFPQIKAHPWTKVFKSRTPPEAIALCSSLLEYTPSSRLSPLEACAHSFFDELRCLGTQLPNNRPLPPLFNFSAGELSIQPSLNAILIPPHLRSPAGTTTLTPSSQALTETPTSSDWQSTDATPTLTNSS

Structure (SMILES) | AC50
Cc1c(/C=N/Nc2ccc([N+](=O)[O-])cn2)c2ccccc2n1Cc1ccccc1 | > 30 µM (inactive)
Cc1ccccc1NC1=NCCCS1 | > 30 µM (inactive)
Cc1c(C(=O)N/N=C/c2ccc(O)c(Br)c2)sc(N)c1C#N | 1.02 µM
NC(=O)c1ccsc1NC(=O)COC(=O)Cc1ccsc1 | 28.6 µM
NC(=O)c1sc2nc3c(c(-c4ccccc4)c2c1N)CCC3 | 13.9 µM
CSCCC1NC(=S)N(Cc2ccccc2)C1=O (stereo not drawn) | > 30 µM (inactive)
C/C(=C(/CCO)SSCC1CCCO1)N(C=O)Cc1cnc(C)nc1N (stereo not drawn) | > 30 µM (inactive)
Cc1ccnc(NC(=O)CCC(=O)N(CC(=O)NCc2ccc(F)cc2)Cc2ccco2)c1 | > 30 µM (inactive)
Cc1cnc(NC(=O)C2CC(=O)N(c3cccc(Cl)c3)C2)s1 (stereo not drawn) | 12.6 µM
COc1ccc(/C=C/c2nc(N)nc(-c3ccccc3O)n2)cc1 | > 30 µM (inactive)
CCCn1c2ccccc2c2nc3ccccc3nc21 | > 30 µM (inactive)
N#Cc1c(Nc2ccccc2)c(/C=N/N=C/c2ccccc2)c[nH]c1=O | > 30 µM (inactive)
CCc1ccc(C2C3=C(CC(C)(C)CC3=O)Nc3c2c(=O)[nH]c2nc(C)nn32)cc1 (stereo not drawn) | > 30 µM (inactive)
CCOC(=O)c1c(C)c[nH]c1C | > 30 µM (inactive)
CC1(C)OC2OC(COC(=O)c3ccccc3)C3OC(C)(C)OC3C2O1 (stereo not drawn) | > 30 µM (inactive)
CN1CCc2nc3sc(C#N)c(N)c3c(-c3cccs3)c2C1 | 0.675 µM
Nc1nc(NCCO)nc(N2CCCCCC2)c1[N+](=O)[O-] | 18.4 µM
S=C(Nc1cccnc1)Nc1cccc2cnccc12 | > 30 µM (inactive)
CCn1c2ccccc2c2nc3ccccc3nc21 | > 30 µM (inactive)
CCCC(=O)Nc1cc(-c2cn3cccnc3n2)ccc1OC | > 30 µM (inactive)
N#CC1=C2SCN(Cc3ccco3)CN2C(=O)CC1c1ccccc1F (stereo not drawn) | > 30 µM (inactive)
CC1(C)CC(=O)C(C(C2=C(O)CC(C)(C)CC2=O)c2ccco2)C(=O)C1 (stereo not drawn) | > 30 µM (inactive)
Cc1cc(N2CCN(c3ccccc3)CC2)n2nnnc2n1 | > 30 µM (inactive)
COc1ccc(S(=O)(=O)NC(C)C(=O)O)cc1 (stereo not drawn) | > 30 µM (inactive)
Cn1c(=O)c2[nH]c(NCC3CCCO3)nc2n(-c2ccccc2)c1=O (stereo not drawn) | 11 µM
CCCCOc1ccc(-c2nnc(N)s2)cc1 | > 30 µM (inactive)

Structure (SMILES) | AC50
CCOC(=O)Nc1nc(C)c(C(=O)c2ccc(Cl)cc2)s1 | > 30 µM (inactive)
CC1CCN(Cc2c(C(=O)N/N=C/c3ccc(C(C)(C)C)cc3)nnn2-c2nonc2N)CC1 | > 30 µM (inactive)
O=[N+]([O-])c1ccc(NCCCN2CCOCC2)c2ncccc12 | > 30 µM (inactive)
COc1ccc(NC(=O)c2nnn(Cc3ccc(SC)cc3)c2N)c(OC)c1 | > 30 µM (inactive)
CCC(C)c1ccc(NC(=S)NCc2cccs2)cc1 (stereo not drawn) | > 30 µM (inactive)
c1ccc(-c2noc(CSc3nnnn3-c3ccccc3)n2)cc1 | > 30 µM (inactive)
O=C(NCCCN1CCCC1)c1cc2c(Cl)nc3ccccc3c2s1 | > 30 µM (inactive)
COc1ccc(CC(=O)Oc2cc(C)ccc2C)cc1 | > 30 µM (inactive)
CCCNC(=O)Cn1c(-c2ccc(F)cc2)cc(C(=O)OCC)c1C | > 30 µM (inactive)
CC(=O)c1c(O)ccc2c(-c3ccccc3)cc(=O)oc12 | > 30 µM (inactive)
CCOc1cc2c(C#N)c(N3CCCC3)nc(N)c2c(N)n1 | > 30 µM (inactive)
O=C(COC(=O)c1cc(S(=O)(=O)N2CCOCC2)ccc1F)Nc1ccc(Cl)cn1 | 2.72 µM
Cc1sc2ncnc(N3CCC(C(=O)Nc4ccc(S(N)(=O)=O)cc4)CC3)c2c1C | 28.2 µM
COc1cc(CN2CCCN(C)CC2)c([N+](=O)[O-])cc1OC | > 30 µM (inactive)
Cc1noc(C)c1CSc1nnc(-c2ccccc2)o1 | > 30 µM (inactive)
O=C(NCCCn1ccnc1)C(=O)NC1CCCCC1 | > 30 µM (inactive)
CCC(=O)/C=C1\Sc2ccc(OC)cc2N1CCO | > 30 µM (inactive)
Clc1ccc(C2=Nn3c(nnc3-c3cccs3)SC2)cc1 | > 30 µM (inactive)
C/C(CC(=O)N(C(C)C)C(C)C)=N\NC(=O)COc1ccc(Br)cc1Br | > 30 µM (inactive)
Cc1cc(O)c(Oc2cc(C)cc(O)c2O)c(O)c1 | > 30 µM (inactive)
CN1/C(=C\C=C(C#N)C#N)C(C)(C)c2ccccc21 | > 30 µM (inactive)
CCOC(=O)c1sc(NC(=O)CSc2ncn[nH]2)c(C#N)c1C | > 30 µM (inactive)
CCN1/C(=C\C(C)=O)Sc2ccc(OC)cc21 | 17.4 µM
c1cncc(CSc2nnc3ccc(-c4cccs4)nn23)c1 | 14.4 µM
COCCCNc1ncnc2nc[nH]c12 | > 30 µM (inactive)
O=C(CSc1ncnc2sc3c(c12)CCC3)NCC1CCCO1 (stereo not drawn) | > 30 µM (inactive)

Structure (SMILES) | AC50
CCCc1cc(NCc2ccccn2)n2c(nc3ccccc32)c1C#N | > 30 µM (inactive)
CO/N=C/c1ccc(N2CCCC2)c([N+](=O)[O-])c1 | > 30 µM (inactive)
O=C(NCc1ccc(C(=O)N2CCC3(CC2)OCCO3)cc1)c1ccc2c(c1)OCO2 | > 30 µM (inactive)
COc1ccc(NC(=O)/C(C#N)=C\C=C\c2ccco2)cc1 | > 30 µM (inactive)
COc1ccc(OC)c(C2CC(=O)N3CN(c4ccccc4)CSC3=C2C#N)c1 (stereo not drawn) | > 30 µM (inactive)
Cc1cccc(C(=O)Nc2nccs2)c1[N+](=O)[O-] | > 30 µM (inactive)
Clc1ccccc1C1=Nn2c(nnc2-c2ccco2)SC1 | 30.4 µM
Cc1nc(NCC2CCCO2)nc2c1C(=O)CC(C)(C)C2 (stereo not drawn) | > 30 µM (inactive)
O=C(O)c1cccc2c1C(=O)c1cc(Br)ccc1S2(=O)=O | > 30 µM (inactive)
O=C(NCCN1CCN(Cc2ccccc2Cl)CC1)Nc1ccccc1 | > 30 µM (inactive)
Cc1cc(=O)[nH]c2cc(O)ccc12 | > 30 µM (inactive)
COc1ccc(Cl)cc1C(=O)Nc1ccc(NC(=O)c2ccco2)cc1 | > 30 µM (inactive)
O=c1[nH]ncc(N/N=C\c2ccncc2)c1Cl | 25.4 µM
COc1cc(/C=C2/NC(=O)NC2=O)cc(Br)c1OCc1cccc(C(=O)O)c1 | 6.54 µM
O=C(CSc1ncccc1-c1nc2ccccc2[nH]1)NCc1ccco1 | > 30 µM (inactive)
O=C(c1ccc2c3n(nc2c1)-c1ccc(Cl)cc1CO3)N1CCCCC1 | > 30 µM (inactive)
COc1ccc(NC(=O)c2ccc(NCC3CCCO3)c([N+](=O)[O-])c2)cc1 (stereo not drawn) | > 30 µM (inactive)
Cc1ccc(N(Cc2ccc([N+](=O)[O-])cc2)C(=O)c2ccco2)cc1C | > 30 µM (inactive)
NC(=O)N/N=C/c1c(O)ccc2oc3c(c12)CCCC3 | 0.845 µM
CCn1c(=O)[nH]c(=O)c2c(N)c(C(=O)c3ccccc3OC)sc21 | 16.8 µM
CC1=[N+](C)c2ccc3ccccc3c2C1(C)C | > 30 µM (inactive)
COc1cc2c(C#N)c(N3CCCC3)nc(N)c2c(N)n1 | > 30 µM (inactive)
CC(=O)Nc1ccc(Nc2ncnc(N)c2[N+](=O)[O-])cc1 | > 30 µM (inactive)
CCc1ccc(C2CC(c3ccc(F)cc3)Nc3nc(N)nn32)cc1 (stereo not drawn) | > 30 µM (inactive)
COc1ccc(CC(=O)Oc2ccccc2C)cc1 | > 30 µM (inactive)
COc1ccc(C(CNc2ccc(S(=O)(=O)N3CCCC3)cc2[N+](=O)[O-])N2CCCC2)cc1 (stereo not drawn) | > 30 µM (inactive)
